Laboratory results reported in the NIST ThermoML archive (doi:10.1021/acs.jced.9b00511).

Assays:
[1] = wn = mass fraction of the nth substance listed; conditions: Wilhelmy Plate
[2] = Wilhelmy Plate

CCCCn1cc[n+](C)c1.NCCCC[C@H](N)C(=O)[O-] [1-butyl-3-methylimidazolium L-lysinate] + O
surface tension liquid-gas [mN/m], [1]
Conditions	w1 = 0.025	w1 = 0.05	w1 = 0.075	w1 = 0.1	w1 = 0.15	w1 = 0.2	w1 = 0.4	w1 = 0.6	w1 = 0.8	w1 = 1
303.2 K	62.5	59.9	57.3	55.1	52.5	50.1	48.4	47.1	46.4	45.9
308.2 K	59.8	57.7	55.2	53.3	50.9	49.1	47.6	46.4	45.9	45.5
313.2 K	57.3	55.5	53.2	51.5	49.3	48.1	46.8	45.7	45.5	45.1
318.2 K	54.3	52.5	50.8	49.4	47.7	46.8	45.9	45.3	45	44.7
323.2 K	51.1	49.6	48.5	47.3	46.2	45.5	45.1	44.9	44.6	44.2

CCCCn1cc[n+](C)c1.NCCCC[C@H](N)C(=O)[O-] [1-butyl-3-methylimidazolium L-lysinate]
[2]
Conditions	surface tension liquid-gas [mN/m]
303.2 K	45.9
308.2 K	45.5
313.2 K	45.1
318.2 K	44.7
323.2 K	44.2

C[N+](C)(C)C.NCC(=O)[O-] [tetramethylammonium glycinate]
[2]
Conditions	surface tension liquid-gas [mN/m]
303.2 K	56.2
308.2 K	55.6
313.2 K	55.1
318.2 K	54.5
323.2 K	53.9

CCCCn1cc[n+](C)c1.NCC(=O)[O-] [1-butyl-3-methylimidazolium glycinate]
[2]
Conditions	surface tension liquid-gas [mN/m]
303.2 K	42.9
308.2 K	42.6
313.2 K	42.4
318.2 K	42.1
323.2 K	41.7

CC(O)CN(C)C (stereo not given) [1-(dimethylamino)-2-propanol]
[2]
Conditions	surface tension liquid-gas [mN/m]
303.2 K	24
308.2 K	23.2
313.2 K	22.6
318.2 K	22
323.2 K	21.3

CC(O)CN(C)C (stereo not given) [1-(dimethylamino)-2-propanol] + O
surface tension liquid-gas [mN/m], [1]
Conditions	303.2 K	308.2 K	313.2 K	318.2 K	323.2 K
w1 = 0.3	36.2	35.4	34.6	33.9	33.2
w1 = 0.4	33.5	32.7	32.1	31.5	30.9
w1 = 0.5	31.5	31	30.2	29.6	29.1
w1 = 1	24	23.2	22.6	22	21.3

CCCCn1cc[n+](C)c1.NCC(=O)[O-] [1-butyl-3-methylimidazolium glycinate] + O
surface tension liquid-gas [mN/m], [1]
Conditions	w1 = 0.025	w1 = 0.05	w1 = 0.075	w1 = 0.1	w1 = 0.15	w1 = 0.2	w1 = 0.4	w1 = 0.6	w1 = 0.8	w1 = 1
303.2 K	59.4	56.7	53.6	50.7	48.3	46.8	46	45.5	44.7	42.9
308.2 K	56.8	54.3	51.6	49.2	47.3	45.9	45.3	44.9	44.1	42.6
313.2 K	54.1	51.9	49.5	47.7	46.2	45	44.6	44.3	43.5	42.4
318.2 K	51.5	49.6	47.8	46.4	45.1	44.2	43.8	43.4	42.8	42.1
323.2 K	48.9	47.3	46.1	45.1	44	43.4	43	42.6	42.1	41.7

C[N+](C)(C)C.NCC(=O)[O-] [tetramethylammonium glycinate] + O
surface tension liquid-gas [mN/m], [1]
Conditions	w1 = 0.025	w1 = 0.05	w1 = 0.075	w1 = 0.1	w1 = 0.15	w1 = 0.2	w1 = 0.4	w1 = 0.6	w1 = 0.8	w1 = 1
303.2 K	67.8	65.4	64.1	62.7	61.6	60.2	58.5	57.6	56.9	56.2
308.2 K	66.6	64.3	62.9	61.6	60.6	59.5	57.8	56.9	56.3	55.6
313.2 K	65.4	63.3	62.2	60.6	59.7	58.8	57.1	56.2	55.8	55.1
318.2 K	64.3	62.5	61	59.8	58.9	58.1	56.5	55.8	55.2	54.5
323.2 K	62.3	61.1	60	58.7	57.9	57.1	56	55.4	54.6	53.9
